# Patent US9598423B2 (BRISTOL-MYERS SQUIBB COMPANY, priority 2013, dated 2017)
# Assays:
# CK1δ = CK1δ (Homo sapiens (Human), UniProt P48730); assay: CK1δ kinase assay (Caliper LABCHIP electrophoretic separation of fluoresceinated peptide substrate and product); assay type: biochemical; conditions: 200 pM CK1δ, 50 μM ATP, 1.5 μM peptide substrate, 22 hours at room temperature; read-out: CK1δ (IC50)
# Summary of the method: (§1)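 Compounds, taken from 10 mM DMSO stocks, are titrated at eleven concentrations. Kinase reactions proceed for 22 hours at room temperature and are quenched with EDTA. Substrate and product are resolved electrophoretically, and IC50 values are fitted by non-linear regression.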
# CK1ε = CK1ε (Homo sapiens (Human), UniProt P49674); assay: CK1ε kinase assay (Caliper LABCHIP electrophoretic separation of fluoresceinated peptide substrate and product); assay type: biochemical; conditions: 200 pM CK1ε, 50 μM ATP, 1.5 μM peptide substrate, 22 hours at room temperature; read-out: CK1ε (IC50)
# Summary of the method: as §1
# CK1ε, sequence (P49674 whole entry): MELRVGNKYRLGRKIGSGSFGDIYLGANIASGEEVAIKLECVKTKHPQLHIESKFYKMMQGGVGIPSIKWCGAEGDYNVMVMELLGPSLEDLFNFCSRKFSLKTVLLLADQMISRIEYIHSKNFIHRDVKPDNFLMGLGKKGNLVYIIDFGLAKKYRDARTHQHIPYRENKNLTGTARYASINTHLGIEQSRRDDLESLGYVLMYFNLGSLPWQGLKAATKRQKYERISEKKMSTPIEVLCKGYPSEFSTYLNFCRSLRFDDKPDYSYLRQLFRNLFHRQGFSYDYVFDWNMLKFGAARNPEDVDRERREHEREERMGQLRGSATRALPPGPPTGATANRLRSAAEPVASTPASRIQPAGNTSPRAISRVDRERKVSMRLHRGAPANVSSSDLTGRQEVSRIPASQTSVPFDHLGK
# CK1δ, sequence (P48730 whole entry): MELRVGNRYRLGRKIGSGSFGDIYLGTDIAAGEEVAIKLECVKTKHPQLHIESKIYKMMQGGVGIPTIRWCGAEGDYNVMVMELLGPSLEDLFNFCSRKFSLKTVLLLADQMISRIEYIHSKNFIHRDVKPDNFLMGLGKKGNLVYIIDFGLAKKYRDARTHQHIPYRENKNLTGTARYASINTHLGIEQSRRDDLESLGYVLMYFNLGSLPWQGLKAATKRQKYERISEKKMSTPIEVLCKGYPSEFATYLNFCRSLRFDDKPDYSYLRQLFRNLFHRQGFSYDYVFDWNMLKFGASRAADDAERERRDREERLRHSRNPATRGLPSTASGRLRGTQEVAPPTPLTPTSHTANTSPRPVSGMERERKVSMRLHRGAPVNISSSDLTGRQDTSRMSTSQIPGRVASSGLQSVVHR
IC50 (CK1δ) [nM],IC50 (CK1ε) [nM],SMILES
0.01 to 10,0.01 to 10,"NC(=O)c1ccc(NC(=O)N2CCn3nc(-c4ccc(F)c(Cl)c4)c(C(N)=O)c3C2)cc1 [Compound 180, N^5-(4-Carbamoylphenyl)-2-(3-chloro-4-fluorophenyl)-6,7-dihydropyrazolo[1,5-a] pyrazine-3,5(4H)-dicarboxamide]"
0.01 to 10,0.01 to 10,"N#Cc1ccc(NC(=O)N2Cc3c(C(N)=O)c(-c4ccc(F)c(Cl)c4)nn3[C@H]3COC[C@H]32)cc1 [Compound 347, (5aS,8aR)-2-(3-Chloro-4-fluorophenyl)-N^5-(4-cyanophenyl)-5a,6,8,8a-tetrahydrofuro[3,4-e]pyrazolo[1,5-a]pyrazine-3,5(4H)-dicarboxamide]"
100 to 2000,100 to 2000,"CN(C)C(=O)c1cccc(-c2nn3c(c2C(N)=O)CN(C(=O)Nc2ccc(C#N)cc2)CC3)c1 [Compound 283, N^5-(4-Cyanophenyl)-2-(3-(dimethylcarbamoyl)phenyl)-6,7-dihydropyrazolo[1,5-a] pyrazine-3,5(4H)-dicarboxamide]"
0.01 to 10,0.01 to 10,"CC1Cn2nc(-c3ccc(F)c(Cl)c3)c(C(N)=O)c2CN1C(=O)Nc1ccc(C#N)cc1 (single isomer, unassigned) [Compound 330, 2-(3-Chloro-4-fluorophenyl)-N^5-(4-cyanophenyl)-6-methyl-6,7-dihydropyrazolo[1,5-a]pyrazine-3,5(4H)-dicarboxamide]"
0.01 to 10,0.01 to 10,"NC(=O)c1c(-c2cc(Cl)c(F)c(Cl)c2)nn2c1CN(C(=O)Nc1cc(Cl)cc(Cl)c1)CC2 [Compound 261, 2-(3,5-Dichloro-4-fluorophenyl)-N^5-(3,5-dichlorophenyl)-6,7-dihydropyrazolo[1,5-a] pyrazine-3,5(4H)-dicarboxamide]"
0.01 to 10,0.01 to 10,"CN(C)c1cccc(-c2nn3c(c2C(N)=O)CN(C(=O)Nc2ccc(C#N)cc2)CC3)c1 [Compound 279, N^5-(4-Cyanophenyl)-2-(3-(dimethylamino)phenyl)-6,7-dihydropyrazolo[1,5-a] pyrazine-3,5(4H)-dicarboxamide]"
0.01 to 10,0.01 to 10,"NC(=O)c1c(-c2cccc(F)c2)nn2c1CN(C(=O)Nc1ccc(C(F)(F)F)cc1)CC2 [Compound 21, 2-(3-Fluorophenyl)-N^5-(4-(trifluoromethyl)phenyl)-6,7-dihydropyrazolo[1,5-a]pyrazine-3,5(4H)-dicarboxamide]"
0.01 to 10,0.01 to 10,"Cc1cc(NC(=O)N2CCn3nc(-c4cc(F)cc(Cl)c4)c(C(N)=O)c3C2)ccc1C#N [Compound 221, 2-(3-Chloro-5-fluorophenyl)-N^5-(4-cyano-3-methylphenyl)-6,7-dihydropyrazolo[1,5-a]pyrazine-3,5(4H)-dicarboxamide]"
0.01 to 10,0.01 to 10,"CC(C)OC(=O)N1CCC(NC(=O)N2CCn3nc(-c4cccc(F)c4)c(C(N)=O)c3C2)CC1 [Compound 100, Isopropyl 4-(3-carbamoyl-2-(3-fluorophenyl)-4,5,6,7-tetrahydropyrazolo[1,5-a]pyrazine-5-carboxamido)piperidine-1-carboxylate]"
0.01 to 10,0.01 to 10,"NC(=O)c1c(-c2ccc(Cl)c(Cl)c2)nn2c1CN(C(=O)Nc1cc(F)cc(C(F)(F)F)c1)CC2 [Compound 212, 2-(3,4-Dichlorophenyl)-N^5-(3-fluoro-5-(trifluoromethyl)phenyl)-6,7-dihydropyrazolo [1,5-a]pyrazine-3,5(4H)-dicarboxamide]"
0.01 to 10,0.01 to 10,"NC(=O)c1c(-c2cccc(Cl)c2)nn2c1CN(C(=O)Nc1ccc(F)cc1)CC2 [Compound 157, 2-(3-Chlorophenyl)-N^5-(4-fluorophenyl)-6,7-dihydropyrazolo[1,5-a]pyrazine-3,5(4H)-dicarboxamide]"
0.01 to 10,0.01 to 10,"NC(=O)c1c(-c2cccc(F)c2)nn2c1CN(C(=O)Nc1cc(F)c(F)c(F)c1)CC2 [Compound 70, 2-(3-Fluorophenyl)-N^5-(3,4,5-trifluorophenyl)-6,7-dihydropyrazolo[1,5-a]pyrazine-3,5(4H)-dicarboxamide]"
0.01 to 10,0.01 to 10,"N#Cc1ccc(NC(=O)N2CCn3nc(-c4cnc(F)c(Cl)c4)c(C(N)=O)c3C2)cc1 [Compound 293, 2-(5-Chloro-6-fluoropyridin-3-yl)-N^5-(4-cyanophenyl)-6,7-dihydropyrazolo[1,5-a] pyrazine-3,5(4H)-dicarboxamide]"
0.01 to 10,0.01 to 10,"Cc1nc(-c2ccc(NC(=O)N3CCn4nc(-c5cccc(Cl)c5)c(C(N)=O)c4C3)cc2)cs1 [Compound A46, 2-(3-Chlorophenyl)-N^5-(4-(2-methylthiazol-4-yl)phenyl)-6,7-dihydropyrazolo[1,5-a]pyrazine-3,5(4H)-dicarboxamide]"
0.01 to 10,0.01 to 10,"N#Cc1ccc(NC(=O)N2CCn3nc(-c4cc(Cl)cc(Cl)c4)c(C(N)=O)c3C2)cc1 [Compound 273, N^5-(4-Cyanophenyl)-2-(3,5-dichlorophenyl)-6,7-dihydropyrazolo[1,5-a] pyrazine-3,5(4H)-dicarboxamide]"
0.01 to 10,0.01 to 10,"NC(=O)c1c(-c2cccc(Cl)c2)nn2c1CN(C(=O)Nc1cccc(F)c1)CC2 [Compound 167, 2-(3-Chlorophenyl)-N^5-(3-fluorophenyl)-6,7-dihydropyrazolo[1,5-a] pyrazine-3,5(4H)-dicarboxamide]"
10 to 100,10 to 100,"N#Cc1ccc(NC(=O)N2CCn3nc(-c4cccc(OC(F)(F)F)c4)c(C(N)=O)c3C2)cc1 [Compound 284, N^5-(4-Cyanophenyl)-2-(3-(trifluoromethoxy)phenyl)-6,7-dihydropyrazolo[1,5-a] pyrazine-3,5(4H)-dicarboxamide]"
0.01 to 10,0.01 to 10,"COc1cccc(NC(=O)N2CCn3nc(-c4cccc(Cl)c4)c(C(N)=O)c3C2)c1 [Compound 170, 2-(3-Chlorophenyl)-N^5-(3-methoxyphenyl)-6,7-dihydropyrazolo[1,5-a] pyrazine-3,5(4H)-dicarboxamide]"
0.01 to 10,0.01 to 10,"NC(=O)c1c(-c2cccc(F)c2)nn2c1CN(C(=O)Nc1ccc(Oc3ccccc3)cc1)CC2 [Compound 58, 2-(3-Fluorophenyl)-N^5-(4-phenoxyphenyl)-6,7-dihydropyrazolo[1,5-a]pyrazine-3,5(4H)-dicarboxamide]"
0.01 to 10,0.01 to 10,"NC(=O)c1c(-c2cc(F)cc(Cl)c2)nn2c1CN(C(=O)Nc1ccc(Cl)c(Cl)c1)CC2 [Compound 217, 2-(3-Chloro-5-fluorophenyl)-N^5-(3,4-dichlorophenyl)-6,7-dihydropyrazolo[1,5-a] pyrazine-3,5(4H)-dicarboxamide]"

SMILES,IC50 (CK1δ) [nM],IC50 (CK1ε) [nM]
"N#Cc1ccc(NC(=O)N2CCn3nc(-c4cc(F)cc(Cl)c4)c(C(N)=O)c3C2)cc1C(F)(F)F [Compound 218, 2-(3-Chloro-5-fluorophenyl)-N^5-(4-cyano-3-(trifluoromethyl)phenyl)-6,7-dihydropyrazolo[1,5-a] pyrazine-3,5(4H)-dicarboxamide]",10 to 100,0.01 to 10
"Cc1cc(-c2nn3c(c2C(N)=O)CN(C(=O)Nc2ccc(C#N)c(C(F)(F)F)c2)CC3)ccc1F [Compound 245, N^5-(4-Cyano-3-(trifluoromethyl)phenyl)-2-(4-fluoro-3-methylphenyl)-6,7-dihydropyrazolo[1,5-a] pyrazine-3,5(4H)-dicarboxamide]",0.01 to 10,0.01 to 10
